Experimental data: patent US6730495B2, “Methods for the identification of antimicrobial compounds” (Mycologics, Inc., priority 2001, dated 2004)

Experiments:
ketol-isomerase [1] = target: ketol-isomerase (Aspergillus fumigatus, UniProt E9R5E2); assay: nitro BT ketol-isomerase inhibition assay with crude A. fumigatus cell extract; assay type: biochemical; conditions: UDP-GlcNAc 0 to 10 mM
Method: Briefly, in this experiment, a series of ketol-isomerase reactions were analyzed in parallel, wherein each reaction mixture contained Fru-6-P, glutamine, and crude A. fumigatus cell extract (as described in Example 3). In addition, reactions also contained various concentrations of UDP-GlcNAc, ranging from 0 to 10 mM. Reactions were incubated at 37° C. for 60 minutes, after which time the ketol-isomerase reactions were terminated by heating at 70° C. for 15 min. However, the ketol-isomerase reaction can also be terminated by boiling for 5 minutes. In addition, the ketol-isomerase reaction can be clarified following the inactivation step by centrifugation or filtration.
Following arrest of the ketol-isomerase reaction, the necessary reagents for the nitro BT reaction were added to each reaction mixture, including glutamate dehydrogenase enzyme and molar excesses of β-NAD, PMS, and nitro BT. After incubation at 37° C. for 90 minutes, the color development was quantitated by measurement of OD585 nm. […]
In this experiment, 50 μL aliquots of a ketol-isomerase reaction mixture containing 10 mM Fru-6-P, 10 mM Gln, 0.3 mg/mL crude A. fumigatus extract, and various concentrations of UDP-GlcNAc were incubated at 37° C. for 60 minutes. […] After incubation at 37° C. for 90 minutes, the color development was quantitated by OD585 nm.

ketol-isomerase [2] = target: T1, ketol-isomerase (Candida albicans, UniProt P53704); conditions: C. albicans strain ATCC No. 10261 crude cell extracts; Milewski et al., J. Biol. Chem., 274:4000-4008 [1999]; read-out: IC50, inhibition of ketol-isomerase activity; cited from earlier work
T1 construct: ketol-isomerase activity in crude cell extract of Candida albicans ATCC10261 yeast-like cells; host or cells: Candida albicans ATCC 10261 crude cell extract
T1 sequence (P53704 2-713): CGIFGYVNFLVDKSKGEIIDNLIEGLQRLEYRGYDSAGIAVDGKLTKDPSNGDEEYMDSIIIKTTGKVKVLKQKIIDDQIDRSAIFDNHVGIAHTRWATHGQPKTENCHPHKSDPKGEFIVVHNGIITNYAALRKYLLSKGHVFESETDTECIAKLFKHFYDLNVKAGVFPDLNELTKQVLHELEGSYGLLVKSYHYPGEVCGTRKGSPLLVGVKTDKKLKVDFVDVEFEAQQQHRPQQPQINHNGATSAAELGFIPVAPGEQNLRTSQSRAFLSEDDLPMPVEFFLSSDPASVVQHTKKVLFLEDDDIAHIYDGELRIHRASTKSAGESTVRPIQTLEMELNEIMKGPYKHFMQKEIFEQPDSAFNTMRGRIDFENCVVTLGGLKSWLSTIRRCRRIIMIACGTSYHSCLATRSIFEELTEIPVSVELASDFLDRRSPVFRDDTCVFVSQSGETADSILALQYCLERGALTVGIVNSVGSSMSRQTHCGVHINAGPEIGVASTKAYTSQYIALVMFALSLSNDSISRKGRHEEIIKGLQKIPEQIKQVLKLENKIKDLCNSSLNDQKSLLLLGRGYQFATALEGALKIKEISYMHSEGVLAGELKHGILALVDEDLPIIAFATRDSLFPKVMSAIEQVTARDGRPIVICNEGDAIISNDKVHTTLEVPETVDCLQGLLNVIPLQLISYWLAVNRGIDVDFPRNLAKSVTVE

Sequence of ketol-isomerase (Aspergillus fumigatus, UniProt E9R5E2) (E9R5E2 entry or part of it): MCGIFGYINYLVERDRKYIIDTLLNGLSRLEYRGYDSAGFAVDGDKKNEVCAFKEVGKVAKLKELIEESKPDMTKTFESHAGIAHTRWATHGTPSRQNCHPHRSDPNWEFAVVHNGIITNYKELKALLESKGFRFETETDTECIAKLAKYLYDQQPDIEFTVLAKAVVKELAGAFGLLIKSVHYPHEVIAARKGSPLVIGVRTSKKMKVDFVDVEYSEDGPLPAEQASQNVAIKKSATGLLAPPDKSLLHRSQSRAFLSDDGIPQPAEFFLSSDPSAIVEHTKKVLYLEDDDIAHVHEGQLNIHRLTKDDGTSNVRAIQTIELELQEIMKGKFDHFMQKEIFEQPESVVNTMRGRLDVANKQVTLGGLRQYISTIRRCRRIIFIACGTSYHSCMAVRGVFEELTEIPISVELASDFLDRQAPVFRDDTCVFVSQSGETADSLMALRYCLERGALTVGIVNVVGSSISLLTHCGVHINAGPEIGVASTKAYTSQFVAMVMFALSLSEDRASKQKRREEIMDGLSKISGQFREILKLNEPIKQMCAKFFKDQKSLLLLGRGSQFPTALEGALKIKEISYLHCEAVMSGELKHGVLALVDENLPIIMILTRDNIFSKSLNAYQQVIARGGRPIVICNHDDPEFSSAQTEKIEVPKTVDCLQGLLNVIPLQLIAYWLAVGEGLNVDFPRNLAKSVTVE

CC(=O)N[C@H]1[C@@H](OP(=O)(O)OP(=O)(O)OC[C@H]2O[C@@H](n3ccc(=O)[nH]c3=O)[C@H](O)[C@@H]2O)O[C@H](CO)[C@@H](O)[C@@H]1O [UDP-GlcNAc, UDP-N-acetylglucosamine]
inhibition of ketol-isomerase activity in A. fumigatus crude extract (FIG. 5) (ketol-isomerase [1]): inhibited by UDP-GlcNAc in a dose-dependent manner | IC50 (ketol-isomerase [2]): 690 µM
